Reference: patent US20100184786A1, “Polar Quinazolines” (Wyeth LLC, priority 2008, published 2010)

How the values were obtained:
[1] = molecular target: T1, human LXRβ (Homo sapiens, UniProt P55055); assay: Ligand-binding test procedure for human LXRβ (3H T0901317 tracer, flash plates); details: competition with 3H T0901317; read-out: hLXRb binding IC50
T1 construct: biotin (biotinylated); made in house; host or cells: E. coli
T1 sequence (P55055 1-460): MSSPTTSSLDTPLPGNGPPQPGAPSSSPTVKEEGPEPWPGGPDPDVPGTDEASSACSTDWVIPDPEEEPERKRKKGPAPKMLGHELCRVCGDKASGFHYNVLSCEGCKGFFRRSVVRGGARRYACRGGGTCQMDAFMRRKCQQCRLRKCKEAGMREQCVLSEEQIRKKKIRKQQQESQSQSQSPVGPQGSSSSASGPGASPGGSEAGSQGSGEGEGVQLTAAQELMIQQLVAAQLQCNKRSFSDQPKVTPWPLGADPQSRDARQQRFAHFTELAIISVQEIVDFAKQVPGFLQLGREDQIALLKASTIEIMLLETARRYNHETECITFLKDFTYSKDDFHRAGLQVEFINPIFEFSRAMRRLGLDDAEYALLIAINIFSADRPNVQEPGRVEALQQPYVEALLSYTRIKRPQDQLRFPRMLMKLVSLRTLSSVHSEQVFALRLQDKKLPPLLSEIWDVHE
Method: I. Ligand-Binding Test Procedure for Human LXRβ.
• Buffer: 100 mM KCl, 100 mM TRIS (pH 7.4 at +4° C.), 8.6% glycerol, 0.1 mM PMSF*, 2 mM MTG*, 0.2% CHAPS (* not used in wash buffer) • Tracer: ^3H T0901317 • Receptor source: E. coli extracted from cells expressing biotinylated hLXRβ. Extract was made in a similar buffer as above, but with 50 mM TRIS.
• Washed streptavidin and coated flash plates with wash buffer. • Diluted receptor extract to give Bmax˜4000 cpm and add to the wells. • Wrapped the plates in aluminum foil and stored them at +4° C. overnight.
(§1) • Made a dilution series in DMSO of the test ligands. • Made a 5 nM solution of the radioactive tracer in buffer. • Mixed 2500 diluted tracer with 50 of the test ligand from each concentration of the dilution series. • Washed the receptor-coated flash plates. • Added 2000 per well of the ligand/radiolabel mixture to the receptor-coated flash plates. • Wrapped the plates in aluminum foil and incubate at +4° C. over night.
• Aspirated wells, and washed the flashed plates. Sealed the plate. • Measured the remaining radioactivity in the plate.

[2] = molecular target: T2, human LXRα (Homo sapiens, UniProt Q13133); assay: Ligand-binding test procedure for human LXRα (3H T0901317 tracer, flash plates); details: competition with 3H T0901317; read-out: hLXRa binding IC50
T2 construct: biotin (biotinylated); made in house; host or cells: E. coli
T2 sequence (Q13133 1-447): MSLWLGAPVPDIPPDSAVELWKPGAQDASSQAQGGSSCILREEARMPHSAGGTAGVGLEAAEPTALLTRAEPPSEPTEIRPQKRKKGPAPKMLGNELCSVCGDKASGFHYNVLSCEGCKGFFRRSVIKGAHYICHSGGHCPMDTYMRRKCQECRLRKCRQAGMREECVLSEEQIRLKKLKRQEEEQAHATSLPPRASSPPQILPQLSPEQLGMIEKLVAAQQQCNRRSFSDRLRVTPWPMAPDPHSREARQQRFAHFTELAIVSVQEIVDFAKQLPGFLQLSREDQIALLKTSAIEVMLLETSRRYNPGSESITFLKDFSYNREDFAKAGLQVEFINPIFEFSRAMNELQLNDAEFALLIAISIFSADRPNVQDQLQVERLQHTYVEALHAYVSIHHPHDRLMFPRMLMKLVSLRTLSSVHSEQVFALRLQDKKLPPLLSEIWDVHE
Method: II. Ligand-Binding Test Procedure for Human LXRa.
• Buffer: 100 mM KCl, 100 mM TRIS (pH 7.4 at +4° C.), 8.6% glycerol, 0.1 mM PMSF*, 2 mM MTG*, 0.2% CHAPS (* not used in wash buffer) • Tracer: ^3H T0901317 • Receptor source: E. coli extract from cells expressing biotinylated hLXRα. Extract was made in a similar buffer as above, but with 50 mM TRIS.
• Washed streptavidin and coated flash plates with wash buffer. • Diluted receptor extract to give Bmax˜4000 cpm and add to the wells. • Wrapped the plates in aluminum foil and stored them at +4° C. over night.
as §1
• Aspirated wells, and wash the flashed plates. Sealed the plate. • Measured the remaining radioactivity in the plate.

[3] = system: ABCA1 gene; assay: Gene regulation by LXR (murine): ABCA1 gene regulation, mRNA by real-time PCR; type: cell-based; details: Mus musculus; for Emax: read-out: Agonism ABCA1

Row | Compound | IC50 [1] [nM] | IC50 [2] [µM] | EC50 [3] [nM] | Emax [3] [%]
1 | CNS(=O)(=O)c1cccc(Oc2ccc(F)c(-c3ncnc4c(Cl)cccc34)c2)c1 [Example 23, 3-[3-(8-chloroquinazolin-4-yl)-4-fluorophenoxy]-N-methylbenzenesulfonamide] | 17 | 0.033 | 450 | 85
2 | NS(=O)(=O)c1cccc(Oc2ccc(Cl)c(-c3ncnc4c(C(F)(F)F)cccc34)c2)c1 [Example 19, 3-{4-chloro-3-[8-(trifluoromethyl)quinazolin-4-yl]phenoxy}benzenesulfonamide] | 49 | 0.581 | 220 | 95
3 | CS(=O)(=O)CCCS(=O)(=O)c1cccc(Oc2ccc(Cl)c(-c3ncnc4c(C(F)(F)F)cccc34)c2)c1 [Example 5, 4-[2-chloro-5-(3-{[3-(methylsulfonyl)propyl]sulfonyl}phenoxy)phenyl]-8-(trifluoro-methyl)quinazoline] | 140 | 0.889 | 3240 | 51
4 | N#CCCCCS(=O)(=O)c1cccc(Oc2ccc(F)c(-c3ncnc4c(C(F)(F)F)cccc34)c2)c1 [Example 31, 5-[(3-{4-fluoro-3-[8-(trifluoromethyl)quinazolin-4-yl]phenoxy}phenyl)sulfonyl]pentanenitrile] | 52 | 0.628 | 1760 | 99
5 | NS(=O)(=O)c1cccc(Oc2ccc(F)c(-c3ncnc4c(C(F)(F)F)cccc34)c2)c1 [Example 21, 3-{4-fluoro-3-[8-(trifluoromethyl)quinazolin-4-yl]phenoxy}benzenesulfonamide] | 121 | 1.01 | 650 | 68
6 | NCCCCS(=O)(=O)c1cccc(Oc2ccc(F)c(-c3ncnc4c(C(F)(F)F)cccc34)c2)c1 [Example 35, 4-[(3-{4-fluoro-3-[8-(trifluoromethyl)quinazolin-4-yl]phenoxy}phenyl)sulfonyl]butan-1-amine] | 584 | 9.42 | – | –
7 | NCCCCS(=O)(=O)c1cccc(Oc2ccc(F)c(-c3ncnc4c(Cl)cccc34)c2)c1 [Example 45, 4-({3-[3-(8-chloroquinazolin-4-yl)-4-fluorophenoxy]phenyl}sulfonyl)butan-1-amine] | 1880 | 11.5 | – | –
8 | O=C(O)CCCS(=O)(=O)c1cccc(Oc2ccc(F)c(-c3ncnc4c(C(F)(F)F)cccc34)c2)c1 [Example 27, 4-[(3-{4-fluoro-3-[8-(trifluoromethyl)quinazolin-4-yl]phenoxy}phenyl)sulfonyl]butanoic acid] | 1200 | 16.7 | – | –
9 | CS(=O)(=O)c1cc(Oc2ccc(Cl)c(-c3ncnc4c(Cl)cccc34)c2)ccc1C#N [Example 1, 4-[4-chloro-3-(8-chloroquinazolin-4-yl)phenoxy]-2-(methylsulfonyl)benzonitrile] | 329 | 3.13 | – | –
10 | NC(=O)CCCCS(=O)(=O)c1cccc(Oc2ccc(F)c(-c3ncnc4c(Cl)cccc34)c2)c1 [Example 53, 5-({3-[3-(8-chloroquinazolin-4-yl)-4-fluorophenoxy]phenyl}sulfonyl)pentanamide] | 324 | 232 | – | –
11 | Cc1nc(-c2cc(Oc3cccc(S(=O)(=O)CCCCNS(C)(=O)=O)c3)ccc2Cl)c2cccc(C(F)(F)F)c2n1 [Example 63, N-{4-[(3-{4-chloro-3-[2-methyl-8-(trifluoromethyl)quinazolin-4-yl]phenoxy}phenyl)sulfonyl]-butyl}methanesulfonamide] | 326 | 4.54 | – | –
12 | CS(=O)(=O)c1cc(Oc2ccc(Cl)c(-c3ncnc4c(Cl)cccc34)c2)ccc1C(N)=O [Example 6, 4-[4-chloro-3-(8-chloroquinazolin-4-yl)phenoxy]-2-(methylsulfonyl)benzamide] | 1260 | 3.84 | – | –
13 | NC(=O)CCCCS(=O)(=O)c1cccc(Oc2ccc(F)c(-c3ncnc4c(C(F)(F)F)cccc34)c2)c1 [Example 33, 5-[(3-{4-fluoro-3-[8-(trifluoromethyl)quinazolin-4-yl]phenoxy}phenyl)sulfonyl]pentanamide] | 130 | 1.35 | – | –
